From US10316049B2, “Tank-binding kinase inhibitor compounds” (Gilead Sciences, Inc., priority 2015, dated 2019)

Legend:
[1] = biological target: T1, IKKε (Homo sapiens, UniProt Q14164); assay: TR-FRET enzymatic activity assay, IKKε; type: biochemical; details: read-out: IKKϵ IC50; note: full length recombinant IKKε at 0.3 nM
T1 construct: TBK1 and IKKε were expressed and purified as full length recombinant proteins; made in house
T1 sequence (Q14164 1-716): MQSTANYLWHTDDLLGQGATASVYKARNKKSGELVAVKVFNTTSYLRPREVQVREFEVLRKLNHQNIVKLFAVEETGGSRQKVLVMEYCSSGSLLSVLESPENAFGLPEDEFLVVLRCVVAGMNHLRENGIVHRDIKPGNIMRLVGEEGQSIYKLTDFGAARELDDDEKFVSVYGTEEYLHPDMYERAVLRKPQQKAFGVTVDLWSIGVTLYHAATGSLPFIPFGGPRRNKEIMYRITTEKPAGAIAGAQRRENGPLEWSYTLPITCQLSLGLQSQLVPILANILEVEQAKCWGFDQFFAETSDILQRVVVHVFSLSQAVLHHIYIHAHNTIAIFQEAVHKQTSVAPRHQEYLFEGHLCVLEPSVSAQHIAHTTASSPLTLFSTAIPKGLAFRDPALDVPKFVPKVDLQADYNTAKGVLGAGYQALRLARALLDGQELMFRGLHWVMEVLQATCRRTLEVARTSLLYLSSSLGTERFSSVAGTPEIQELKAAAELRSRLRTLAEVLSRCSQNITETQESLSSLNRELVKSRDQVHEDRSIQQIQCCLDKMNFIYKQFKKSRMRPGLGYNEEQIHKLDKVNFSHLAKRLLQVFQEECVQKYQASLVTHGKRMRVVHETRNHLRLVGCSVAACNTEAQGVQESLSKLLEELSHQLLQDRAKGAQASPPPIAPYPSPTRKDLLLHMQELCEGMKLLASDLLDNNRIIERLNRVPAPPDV
How it was run: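 Full-length recombinant IKKε phosphorylated a biotinylated Ser/Thr peptide for 240 min at 25 °C; EDTA stop. Phospho-peptide detected by TR-FRET with streptavidin-XL665 (125 nM) and Eu-cryptate anti-phospho antibody. Normalised to staurosporine and DMSO controls; IC50 from four-parameter fit, geometric mean of ≥4 runs.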

[2] = biological target: T2, TBK1 (Homo sapiens, UniProt Q9UHD2); assay: TR-FRET enzymatic activity assay, TBK1; type: biochemical; note: full length recombinant TBK1 at 2.5 nM
T2 construct: TBK1 and IKKε were expressed and purified as full length recombinant proteins; made in house
T2 sequence (Q9UHD2 1-729): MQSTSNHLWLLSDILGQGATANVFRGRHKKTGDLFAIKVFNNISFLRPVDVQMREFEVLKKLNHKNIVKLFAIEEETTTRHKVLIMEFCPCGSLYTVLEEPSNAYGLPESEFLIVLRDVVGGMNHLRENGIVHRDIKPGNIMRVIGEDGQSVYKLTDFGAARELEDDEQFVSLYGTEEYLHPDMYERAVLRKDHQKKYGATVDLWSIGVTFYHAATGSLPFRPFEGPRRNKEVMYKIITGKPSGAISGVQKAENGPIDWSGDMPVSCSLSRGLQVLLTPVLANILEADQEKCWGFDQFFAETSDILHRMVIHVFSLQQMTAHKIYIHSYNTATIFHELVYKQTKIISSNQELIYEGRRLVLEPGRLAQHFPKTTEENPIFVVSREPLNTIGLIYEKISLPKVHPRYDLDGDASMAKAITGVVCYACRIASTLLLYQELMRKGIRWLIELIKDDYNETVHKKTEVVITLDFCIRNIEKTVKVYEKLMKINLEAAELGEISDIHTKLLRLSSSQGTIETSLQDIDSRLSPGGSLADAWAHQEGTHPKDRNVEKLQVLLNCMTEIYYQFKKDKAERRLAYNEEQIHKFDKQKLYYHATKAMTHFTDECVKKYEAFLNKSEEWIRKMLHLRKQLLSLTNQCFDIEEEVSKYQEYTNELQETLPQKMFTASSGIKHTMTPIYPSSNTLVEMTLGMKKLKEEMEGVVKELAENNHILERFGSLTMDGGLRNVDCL
How it was run: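 Full-length recombinant enzymes phosphorylated a biotinylated Ser/Thr peptide for 240 min at 25 °C, stopped with EDTA. Phosphopeptide detected by TR-FRET (streptavidin XL665, Eu-cryptate anti-phospho antibody). IC50 from four-parameter fits normalized to 1 μM staurosporine and DMSO controls, as geometric means of at least four determinations.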

| Structure (SMILES) | IC50 [1] [nM] | IC50 [2] [nM] |
| --- | --- | --- |
| N#Cc1cc(-c2cc(NC(=O)C3CC3)ncn2)ccc1O[C@H]1CCN(C(=O)CO)CC1(F)F [Example 20, (S)—N-(6-(3-cyano-4-((3,3-difluoro-1-(2-hydroxyacetyl)piperidin-4-yl)oxy)phenyl)pyrimidin-4-yl)cyclopropanecarboxamide] | 9.5 | 4.8 |
| N#Cc1cc(-c2ccnc(NC(=O)C3CC3)c2)ccc1O[C@H]1CCN(C(=O)[C@@H](O)CO)CC1(F)F [Example 157, N-(4-(3-cyano-4-(((S)-1-((S)-2,3-dihydroxypropanoyl)-3,3-difluoropiperidin-4-yl)oxy)phenyl)pyridin-2-yl)cyclopropanecarboxamide] | 4.7 | 4.4 |
| CCOC(=O)[C@@H]1C[C@H]1C(=O)Nc1cc(-c2ccc(OC3CCOCC3)c(C#N)c2)ccn1 (relative stereo) [Example 50, Ethyl trans-2-((4-(3-cyano-4-((tetrahydro-2H-pyran-4-yl)oxy)phenyl)pyridin-2-yl)carbamoyl)cyclopropane-1-carboxylate] | 535 | 230 |
| N#Cc1cc(-c2ccnc(NC(=O)[C@@H]3C[C@H]3c3ccccc3)c2)ccc1OC1CCOCC1 [Example 87, (1R,2R)—N-(4-(3-cyano-4-((tetrahydro-2H-pyran-4-yl)oxy)phenyl)pyridin-2-yl)-2-phenylcyclopropane-1-carboxamide] | 777 | 426 |
| N#Cc1cc(-c2ccnc(NC(=O)C3CC3)c2)ccc1O[C@H]1CCN(C(=O)CCO)CC1(F)F [Example 15, (S)—N-(4-(3-cyano-4-((3,3-difluoro-1-(3-hydroxypropanoyl)piperidin-4-yl)oxy)phenyl)pyridin-2-yl)cyclopropanecarboxamide] | 84.2 | 23.2 |
| N#Cc1cc(-c2ccnc(NC(=O)[C@@H]3C[C@H]3c3ccc(C4CC4)nc3)c2)ccc1O[C@H]1CCN(C(=O)CO)CC1(F)F [Example 115, (1R,2R)—N-(4-(3-cyano-4-(((S)-3,3-difluoro-1-(2-hydroxyacetyl)piperidin-4-yl)oxy)phenyl)pyridin-2-yl)-2-(6-cyclopropylpyridin-3-yl)cyclopropane-1-carboxamide] | 7.1 | 8.1 |
| N#Cc1cc(-c2ccnc(NC(=O)[C@H]3C[C@@H]3C3CC3)c2)ccc1OC1CCOCC1 (relative stereo) [Example 88, (1,2-trans)-N-(4-(3-cyano-4-((tetrahydro-2H-pyran-4-yl)oxy)phenyl)pyridin-2-yl)-[1,1′-bi(cyclopropane)]-2-carboxamide] | 314 | 58.8 |
| N#Cc1cc(-c2ccnc(NC(=O)[C@H]3C[C@@H]3c3cccnc3)c2)ccc1O[C@H]1CCN(C(=O)CO)CC1(F)F [Example 142, (1S,2S)—N-(4-(3-cyano-4-(((S)-3,3-difluoro-1-(2-hydroxyacetyl)piperidin-4-yl)oxy)phenyl)pyridin-2-yl)-2-(pyridin-3-yl)cyclopropane-1-carboxamide] | 6 | 5.7 |
| N#Cc1cc(-c2ccnc(NC(=O)[C@H]3[C@@H]4COC[C@@H]43)c2)ccc1OC1CCOCC1 [Example 118, (1R,5S,6R)—N-(4-(3-cyano-4-((tetrahydro-2H-pyran-4-yl)oxy)phenyl)pyridin-2-yl)-3-oxabicyclo[3.1.0]hexane-6-carboxamide] | 632 | 871 |
| N#Cc1cc(-c2ccnc(NC(=O)[C@H]3C[C@@H]3c3cscn3)c2)ccc1OC1CCOCC1 (relative stereo) [Example 123, (1,2-Trans)-N-(4-(3-cyano-4-((tetrahydro-2H-pyran-4-yl)oxy)phenyl)pyridin-2-yl)-2-(thiazol-4-yl)cyclopropane-1-carboxamide] | > 1000 | 938 |
| N#Cc1cc(-c2ccnc(NC(=O)C3CC3C#N)c2)ccc1O[C@H]1CCN(C(=O)CO)C[C@H]1F (stereo partly drawn) [Example 67, 2-Cyano-N-(4-(3-cyano-4-(((3R,4S)-3-fluoro-1-(2-hydroxyacetyl)piperidin-4-yl)oxy)phenyl)pyridin-2-yl)cyclopropane-1-carboxamide] | 68.4 | 26.1 |
| Cn1cc([C@H]2C[C@@H]2C(=O)Nc2cc(-c3ccc(O[C@H]4CCN(C(=O)CO)C[C@H]4F)c(C#N)c3)ccn2)cn1 [Example 126, (1S,2S)—N-(4-(3-Cyano-4-(((3R,4S)-3-fluoro-1-(2-hydroxyacetyl)piperidin-4-yl)oxy)phenyl)pyridin-2-yl)-2-(1-methyl-1H-pyrazol-4-yl)cyclopropane-1-carboxamide] | 14 | 5.7 |

The next lines start with the values.

| IC50 [1] [nM] | IC50 [2] [nM] | Structure (SMILES) |
| --- | --- | --- |
| 73.2 | 96.3 | CC(O)[C@@H]1C[C@H]1C(=O)Nc1cc(-c2ccc(OC3CCOCC3)c(C#N)c2)ccn1 (stereo partly drawn) [Example 39, (1,2-trans)-N-(4-(3-cyano-4-((tetrahydro-2H-pyran-4-yl)oxy)phenyl)pyridin-2-yl)-2-(-1-hydroxyethyl)cyclopropane-1-carboxamide] |
| 5.9 | 4.6 | N#Cc1cc(-c2ccnc(NC(=O)[C@H]3C[C@@H]3c3cccnc3)c2)ccc1O[C@H]1CCN(C(=O)[C@@H](O)CO)CC1(F)F [Example 140, (1S, 2S)—N-(4-(3-cyano-4-(((S)-1-((S)-2,3-dihydroxypropanoyl)-3,3-difluoropiperidin-4-yl)oxy)phenyl)pyridin-2-yl)-2-(pyridin-3-yl)cyclopropane-1-carboxamide] |
| 65 | 61.5 | N#Cc1cc(-c2ccnc(NC(=O)[C@@H]3C[C@H]3C=O)c2)ccc1OC1CCOCC1 (relative stereo) [Example 40, (1,2-trans)-N-(4-(3-cyano-4-((tetrahydro-2H-pyran-4-yl)oxy)phenyl)pyridin-2-yl)-2-formylcyclopropane-1-carboxamide] |
| 15.6 | 6.1 | Cn1cc([C@@H]2C[C@H]2C(=O)Nc2cc(-c3ccc(O[C@H]4CCN(C(=O)[C@@H](O)CO)C[C@H]4F)c(C#N)c3)ccn2)cn1 [Example 130, (1,2-Trans)-N-(4-(3-cyano-4-(((3R,4S)-1-((S)-2,3-dihydroxypropanoyl)-3-fluoropiperidin-4-yl)oxy)phenyl)pyridin-2-yl)-2-(1-methyl-1H-pyrazol-4-yl)cyclopropane-1-carboxamide] |
| > 1000 | > 1000 | CC(=O)NC1C2CC1C2C(=O)Nc1cc(-c2ccc(OC3CCOCC3)c(C#N)c2)ccn1 (centres unmarked) [Example 55, 4-acetamido-N-(4-(3-cyano-4-((tetrahydro-2H-pyran-4-yl)oxy)phenyl)pyridin-2-yl)bicyclo[1.1.1]pentane-2-carboxamide] |
| 80.3 | 267 | CN(C)C[C@@H]1C[C@H]1C(=O)Nc1cc(-c2ccc(OC3CCOCC3)c(C#N)c2)ccn1 (relative stereo) [Example 41, (1,2-trans)-N-(4-(3-cyano-4-((tetrahydro-2H-pyran-4-yl)oxy)phenyl)pyridin-2-yl)-2-((dimethylamino)methyl)cyclopropane-1-carboxamide] |
| 39.7 | 33.8 | N#Cc1cc(-c2ccnc(NC(=O)[C@H]3C[C@H]3F)c2)ccc1O[C@H]1CCN(C(=O)CO)C[C@H]1F [Example 59, (1R,2R)—N-(4-(3-cyano-4-(((3R,4S)-3-fluoro-1-(2-hydroxyacetyl)piperidin-4-yl)oxy)phenyl)pyridin-2-yl)-2-fluorocyclopropanecarboxamide] |
